Consider three compounds from patent US20030118597A1 (priority 2001, published 2003).

Data set [1] has as its system microsomal cyclooxygenase system. Particulars: animal models; cited from earlier work.
The conditions of data set [2]: preliminary data, animal model.
Data set [3] relates to hypophyseal adrenal system. Particulars: cited from earlier work.

As to Adolapin [Ado lapin], the “strength relative to Indomethacine” value in data set [1] is recorded as 70 times.

On to Phospholipase A2, for which, in data set [2], the “allergen component of the venom” value was “major allergen component”. Take `CC[C@H](C)[C@H](NC(=O)CN)C(=O)NCC(=O)N[C@@H](C)C(=O)N[C@H](C(=O)N[C@@H](CC(C)C)C(=O)N[C@@H](CCCCN)C(=O)N[C@H](C(=O)N[C@@H](CC(C)C)C(=O)N[C@H](C(=O)N[C@H](C(=O)NCC(=O)N[C@@H](CC(C)C)C(=O)N1CCC[C@H]1C(=O)N[C@@H](C)C(=O)N[C@@H](CC(C)C)C(=O)N[C@H](C(=O)N[C@@H](CO)C(=O)N[C@@H](Cc1c[nH]c2ccccc12)C(=O)N[C@H](C(=O)N[C@@H](CCCCN)C(=O)N[C@@H](CCCNC(=N)N)C(=O)N[C@@H](CCCCN)C(=O)N[C@@H](CCCNC(=N)N)C(=O)N[C@@H](CCC(N)=O)C(=O)N[C@@H](CCC(N)=O)C(N)=O)[C@@H](C)CC)[C@@H](C)CC)[C@@H](C)O)[C@@H](C)O)C(C)C)C(C)C` [Melittin]: in data set [2], the “allergen component of the venom” value is reported as “major allergen component”. Besides, the “potency of released cortisol relative to hydrocortisone” value in data set [3] is given as 100 times.
